This is an account of results in US20090246276A1, “Pharmaceutical Compositions” (priority 2008, published 2009).

Series [1] can be described thus: Example 22: effect of bupropion (Wellbutrin XL 300 mg) on steady-state pharmacokinetics of citalopram (Celexa 20 mg).
Series [2] in a line: In-vitro dissolution, 900 ml medium (0.1N HCl, pH 4.5 acetate buffer, pH 6.8 or pH 7.5 phosphate buffer), USP Apparatus 1, 75 rpm, 37° C. It counts as physicochemical. As to conditions: for % Release: 900 ml Phosphate Buffer, pH 7.5, Apparatus 1, 75 rpm, 37 C. How it is done:
The dissolution profile of the above pharmaceutical composition was determined under the dissolution conditions described below in Tables 1A, 1B, and 1C.

Series [3] in a line: Solubility (37° C.) in 0.1N HCl, pH 4.5, pH 6.8. Format: physicochemical. The conditions noted are these: 37 °C.
[4] abbreviates: steady-state dosing of Celexa 20 mg alone.
Where [5] appears, read: steady-state dosing of Celexa 20 mg plus Wellbutrin XL 300 mg.

Counter-ions that a name gives are not always drawn.

As for `CNCCC[C@]1(c2ccc(F)cc2)OCc2cc(C#N)ccc21` [Desmethylcitalopram, desmethylcitalopram], in series [1] (setting [4]), the “AUC0-τ, Mean” value worked out at 445.9 ng·h/mL; the “Cavg, Mean” value is on record as 18.6 ng/mL; the “Cmax, Mean” value stood at 21.7 ng/mL; the “Cmin, Mean” value is listed as 16.3 ng/mL. For the same compound, in series [1] (setting [4]), the “Fluctuation, Mean” value was determined as 28.93%; the “M/P Ratio, Mean” value came out at 0.4062; the “MRT, Mean” value worked out at 98.54 h; the “Swing, Mean” value amounted to 33.09%. Besides, the “Tmax, Mean” value in series [1] (setting [4]) was 5.46 h. In series [1] (setting [5]), the “AUC0-τ, Mean” value is 485.2 ng·h/mL; the “Cavg, Mean” value was determined as 20.2 ng/mL; the “Cmax, Mean” value was 23.6 ng/mL; the “Cmin, Mean” value stood at 17.3 ng/mL. Besides, in series [1] (setting [5]), the “Fluctuation, Mean” value is 30.39%; the “M/P Ratio, Mean” value was determined as 0.2814; the “MRT, Mean” value stood at 85.78 h; the “Swing, Mean” value was determined as 35.98%. In addition, in series [1] (setting [5]), the “Tmax, Mean” value came out at 7.12 h.

On to `N#Cc1ccc2c(c1)COC2(CCCN)c1ccc(F)cc1` (centres unmarked) [Didesmethylcitalopram, didesmethylcitalopram], for which, in series [1] (setting [4]), the “AUC0-τ, Mean” value turned out to be 92.04 ng·h/mL; the “Cavg, Mean” value is given as 3.84 ng/mL; the “Cmax, Mean” value was 4.40 ng/mL; the “Cmin, Mean” value came to 3.42 ng/mL. In series [1] (setting [4]), the “Fluctuation, Mean” value amounted to 26.43%; the “M/P Ratio, Mean” value was 0.09587; the “MRT, Mean” value turned out to be 258.96 h; the “Swing, Mean” value stood at 29.97%. Also, the “Tmax, Mean” value in series [1] (setting [4]) worked out at 6.41 h.

On to `COc1cccc(C2(O)CCCCC2CN(C)C)c1` (centres unmarked) [Tramadol HCl, tramadol HCl], for which the “% Released” value in series [2] (Example 20 tablet, 0.1N HCl, 0.5 hr) is 10%; in series [2] (Example 20 tablet, 0.1N HCl, 1 hr) it was 33%; in series [2] (Example 20 tablet, 0.1N HCl, 2 hr), 73%; in series [2] (Example 20 tablet, 0.1N HCl, 3 hr), 96%; in series [2] (Example 20 tablet, 0.1N HCl, 4 hr) it was 104%; in series [2] (Example 20 tablet, 0.1N HCl, 5 hr), 106%. The “% Released” value was 106% in series [2] (Example 20 tablet, 0.1N HCl, 6 hr); 106% in series [2] (Example 20 tablet, 0.1N HCl, 8 hr); 105% in series [2] (Example 20 tablet, 0.1N HCl, 10 hr); 105% in series [2] (Example 20 tablet, 0.1N HCl, 12 hr); 9% in series [2] (Example 20 tablet, pH 6.8 phosphate buffer, 0.5 hr); 32% in series [2] (Example 20 tablet, pH 6.8 phosphate buffer, 1 hr). Further, the “% Released” value in series [2] (Example 20 tablet, pH 6.8 phosphate buffer, 2 hr) was 75%; in series [2] (Example 20 tablet, pH 6.8 phosphate buffer, 3 hr) it was 98%; in series [2] (Example 20 tablet, pH 6.8 phosphate buffer, 4 hr), 105%; in series [2] (Example 20 tablet, pH 6.8 phosphate buffer, 5 hr), 107%; in series [2] (Example 20 tablet, pH 6.8 phosphate buffer, 6 hr), 107%; in series [2] (Example 20 tablet, pH 6.8 phosphate buffer, 8 hr), 107%. For the same compound, the “% Released” value came to 107% in series [2] (Example 20 tablet, pH 6.8 phosphate buffer, 10 hr); 107% in series [2] (Example 20 tablet, pH 6.8 phosphate buffer, 12 hr); 18% in series [2] (Example 29 controlled release tablet (batch no. 08070T), 900 ml 0.1N HCl, USP Apparatus 1, 75 rpm, 37° C., 0.5 hr); 28% in series [2] (Example 29 controlled release tablet (batch no. 08070T), 900 ml 0.1N HCl, USP Apparatus 1, 75 rpm, 37° C., 1 hr); 42% in series [2] (Example 29 controlled release tablet (batch no. 08070T), 900 ml 0.1N HCl, USP Apparatus 1, 75 rpm, 37° C., 2 hr); 53% in series [2] (Example 29 controlled release tablet (batch no. 08070T), 900 ml 0.1N HCl, USP Apparatus 1, 75 rpm, 37° C., 3 hr). The “% Released” value in series [2] (Example 29 controlled release tablet (batch no. 08070T), 900 ml 0.1N HCl, USP Apparatus 1, 75 rpm, 37° C., 4 hr) came out at 62%; in series [2] (Example 29 controlled release tablet (batch no. 08070T), 900 ml 0.1N HCl, USP Apparatus 1, 75 rpm, 37° C., 5 hr), 70%; in series [2] (Example 29 controlled release tablet (batch no. 08070T), 900 ml 0.1N HCl, USP Apparatus 1, 75 rpm, 37° C., 6 hr), 76%; in series [2] (Example 29 controlled release tablet (batch no. 08070T), 900 ml 0.1N HCl, USP Apparatus 1, 75 rpm, 37° C., 8 hr), 86%; in series [2] (Example 29 controlled release tablet (batch no. 08070T), 900 ml 0.1N HCl, USP Apparatus 1, 75 rpm, 37° C., 10 hr), 93%; in series [2] (Example 29 controlled release tablet (batch no. 08070T), 900 ml 0.1N HCl, USP Apparatus 1, 75 rpm, 37° C., 12 hr), 97%. In addition, the “% Released” value came to 19% in series [2] (Example 29 controlled release tablet (batch no. 08070T), 900 ml pH 6.8 phosphate buffer, USP Apparatus 1, 75 rpm, 37° C., 0.5 hr); 29% in series [2] (Example 29 controlled release tablet (batch no. 08070T), 900 ml pH 6.8 phosphate buffer, USP Apparatus 1, 75 rpm, 37° C., 1 hr); 44% in series [2] (Example 29 controlled release tablet (batch no. 08070T), 900 ml pH 6.8 phosphate buffer, USP Apparatus 1, 75 rpm, 37° C., 2 hr); 55% in series [2] (Example 29 controlled release tablet (batch no. 08070T), 900 ml pH 6.8 phosphate buffer, USP Apparatus 1, 75 rpm, 37° C., 3 hr); 65% in series [2] (Example 29 controlled release tablet (batch no. 08070T), 900 ml pH 6.8 phosphate buffer, USP Apparatus 1, 75 rpm, 37° C., 4 hr); 72% in series [2] (Example 29 controlled release tablet (batch no. 08070T), 900 ml pH 6.8 phosphate buffer, USP Apparatus 1, 75 rpm, 37° C., 5 hr). For the same compound, the “% Released” value is 79% in series [2] (Example 29 controlled release tablet (batch no. 08070T), 900 ml pH 6.8 phosphate buffer, USP Apparatus 1, 75 rpm, 37° C., 6 hr); 90% in series [2] (Example 29 controlled release tablet (batch no. 08070T), 900 ml pH 6.8 phosphate buffer, USP Apparatus 1, 75 rpm, 37° C., 8 hr); 98% in series [2] (Example 29 controlled release tablet (batch no. 08070T), 900 ml pH 6.8 phosphate buffer, USP Apparatus 1, 75 rpm, 37° C., 10 hr); 102% in series [2] (Example 29 controlled release tablet (batch no. 08070T), 900 ml pH 6.8 phosphate buffer, USP Apparatus 1, 75 rpm, 37° C., 12 hr). Moreover, the “% Release” value in series [2] (Example 27 controlled release tablet (batch 1258-171), 2 hrs) is on record as 51%; in series [2] (Example 27 controlled release tablet (batch 1258-171), 4 hrs), 70%; in series [2] (Example 27 controlled release tablet (batch 1258-171), 8 hrs) it was 96%; in series [2] (Example 27 controlled release tablet (batch 1258-171), 10 hrs), 100%; in series [2] (Example 27 controlled release tablet (batch 1258-171), 16 hrs), 100%; in series [2] (Example 28 controlled release tablet (batch 1258-175), 2 hrs), 0%. Moreover, the “% Release” value in series [2] (Example 28 controlled release tablet (batch 1258-175), 4 hrs) was determined as 7%; in series [2] (Example 28 controlled release tablet (batch 1258-175), 8 hrs), 61%; in series [2] (Example 28 controlled release tablet (batch 1258-175), 10 hrs) it was 74%; in series [2] (Example 28 controlled release tablet (batch 1258-175), 16 hrs), 84%.

Usually solubility stands for the concentration that dissolves in the medium under given conditions. Take `OCCOCCN1CCN(C2=Nc3ccccc3Sc3ccccc32)CC1` [Quetiapine Fumarate, quetiapine fumarate]: the solubility is 41000 µg/mL in series [3] (0.1N HCl, simulated gastric fluid); 3000 µg/mL in series [3] (pH 4.5, aqueous buffer, pH 4.5); 300 µg/mL in series [3] (pH 6.8, aqueous buffer, pH 6.8). In addition, the “% Released” value in series [2] (Example 17 tablet, 0.1N HCl, 1 hr) stood at 18%; in series [2] (Example 17 tablet, 0.1N HCl, 2 hr), 39%; in series [2] (Example 17 tablet, 0.1N HCl, 4 hr), 69%; in series [2] (Example 17 tablet, 0.1N HCl, 8 hr), 98%; in series [2] (Example 17 tablet, 0.1N HCl, 12 hr), 97%; in series [2] (Example 17 tablet, 0.1N HCl, 16 hr), 96%. Besides, the “% Released” value in series [2] (Example 17 tablet, pH 6.8 phosphate buffer, 1 hr) is 2%; in series [2] (Example 17 tablet, pH 6.8 phosphate buffer, 2 hr) it was 10%; in series [2] (Example 17 tablet, pH 6.8 phosphate buffer, 4 hr), 41%; in series [2] (Example 17 tablet, pH 6.8 phosphate buffer, 8 hr), 76%; in series [2] (Example 17 tablet, pH 6.8 phosphate buffer, 12 hr) it was 93%; in series [2] (Example 17 tablet, pH 6.8 phosphate buffer, 16 hr) it was 95%.

As usually defined, the Vd/F is the apparent distribution volume after extravascular dosing. As for `CN(C)CCCC1(c2ccc(F)cc2)OCc2cc(C#N)ccc21` (centres unmarked) [Citalopram, citalopram], in series [1] (both, human, in vivo, 20 mg), the AUC was 1220 ng·h/mL, the Cmax stood at 67.9 ng/mL, the MRT turned out to be 48.6 h and the Tmax came to 3.96 h. Further, in series [1] (both, human, in vivo, 20 mg), the Vd/F worked out at 750 L. Besides, in series [1] (setting [4]), the “CL/F, Mean” value stood at 17.66 L/h; the “Cavg, Mean” value is recorded as 50.8 ng/mL; the “Cmin, Mean” value was determined as 39.5 ng/mL; the “Fluctuation, Mean” value is reported as 57.22%. Besides, the “Swing, Mean” value in series [1] (setting [4]) is 75.55%. In addition, in series [1] (setting [5]), the “CL/F, Mean” value was determined as 11.04 L/h; the “Cavg, Mean” value is on record as 78.2 ng/mL; the “Cmin, Mean” value turned out to be 61.6 ng/mL; the “Fluctuation, Mean” value is 48.46%. For the same compound, the “Swing, Mean” value in series [1] (setting [5]) was 62.15%.
